Measurements: the NIST ThermoML archive (doi:10.1021/je050414d)

Test: xn = mol fraction of the nth substance listed
Conditions: 101 kPa, Liquid; for viscosity: Capillary tube (Ostwald / Ubbelohde) method

CCOC(=O)OCC [diethyl carbonate] + Cc1ccccc1
Conditions	mass density [kg/m3]	viscosity [mPa·s]
298.15 K, x1 = 0.1014	874.5	0.573
298.15 K, x1 = 0.1984	885.94	0.59
298.15 K, x1 = 0.3006	897.67	0.608
298.15 K, x1 = 0.4024	908.97	0.627
298.15 K, x1 = 0.5212	921.72	0.649
298.15 K, x1 = 0.6022	930.18	0.664
298.15 K, x1 = 0.7016	940.28	0.684
298.15 K, x1 = 0.7995	949.95	0.702
298.15 K, x1 = 0.8975	959.36	0.722
298.15 K, x1 = 1	968.97	0.746
303.15 K, x1 = 0.1014	870.46	0.542
303.15 K, x1 = 0.1984	881.62	0.557
303.15 K, x1 = 0.3006	893.06	0.573
303.15 K, x1 = 0.4024	904.06	0.59
303.15 K, x1 = 0.5212	916.47	0.609
303.15 K, x1 = 0.6022	924.71	0.622
303.15 K, x1 = 0.7016	934.52	0.639
303.15 K, x1 = 0.7995	943.93	0.657
303.15 K, x1 = 0.8975	953.08	0.674
303.15 K, x1 = 1	962.39	0.695
313.15 K, x1 = 0.1014	860.95	0.484
313.15 K, x1 = 0.1984	872.04	0.497
313.15 K, x1 = 0.3006	883.39	0.51
313.15 K, x1 = 0.4024	894.33	0.523
313.15 K, x1 = 0.5212	906.66	0.539
313.15 K, x1 = 0.6022	914.85	0.55
313.15 K, x1 = 0.7016	924.6	0.564
313.15 K, x1 = 0.7995	933.95	0.579
313.15 K, x1 = 0.8975	943.04	0.593
313.15 K, x1 = 1	952.32	0.61
323.15 K, x1 = 0.1014	850.49	0.434
323.15 K, x1 = 0.1984	861.33	0.445
323.15 K, x1 = 0.3006	872.43	0.457
323.15 K, x1 = 0.4024	883.11	0.468
323.15 K, x1 = 0.5212	895.17	0.481
323.15 K, x1 = 0.6022	903.16	0.491
323.15 K, x1 = 0.7016	912.68	0.503
323.15 K, x1 = 0.7995	921.81	0.515
323.15 K, x1 = 0.8975	930.72	0.527
323.15 K, x1 = 1	939.78	0.541
333.15 K, x1 = 0.1014	841.39	0.394
333.15 K, x1 = 0.1984	852.01	0.403
333.15 K, x1 = 0.3006	862.85	0.413
333.15 K, x1 = 0.4024	873.3	0.422
333.15 K, x1 = 0.5212	885.09	0.434
333.15 K, x1 = 0.6022	892.88	0.442
333.15 K, x1 = 0.7016	902.2	0.452
333.15 K, x1 = 0.7995	911.11	0.461
333.15 K, x1 = 0.8975	919.81	0.471
333.15 K, x1 = 1	928.69	0.483
343.15 K, x1 = 0.1014	831.46	0.358
343.15 K, x1 = 0.1984	841.79	0.365
343.15 K, x1 = 0.3006	852.32	0.373
343.15 K, x1 = 0.4024	862.48	0.382
343.15 K, x1 = 0.5212	873.94	0.391
343.15 K, x1 = 0.6022	881.51	0.398
343.15 K, x1 = 0.7016	890.57	0.407
343.15 K, x1 = 0.7995	899.24	0.415
343.15 K, x1 = 0.8975	907.69	0.425
343.15 K, x1 = 1	916.33	0.435
353.15 K, x1 = 0.1014	821.53	0.318
353.15 K, x1 = 0.1984	831.67	0.326
353.15 K, x1 = 0.3006	842.02	0.334
353.15 K, x1 = 0.4024	852.02	0.342
353.15 K, x1 = 0.5212	863.29	0.352
353.15 K, x1 = 0.6022	870.74	0.358
353.15 K, x1 = 0.7016	879.66	0.367
353.15 K, x1 = 0.7995	888.2	0.375
353.15 K, x1 = 0.8975	896.52	0.384
353.15 K, x1 = 1	905.02	0.393
363.15 K, x1 = 0.1014	808.79	0.293
363.15 K, x1 = 0.1984	819.07	0.3
363.15 K, x1 = 0.3006	829.57	0.306
363.15 K, x1 = 0.4024	839.71	0.313
363.15 K, x1 = 0.5212	851.16	0.322
363.15 K, x1 = 0.6022	858.77	0.328
363.15 K, x1 = 0.7016	867.85	0.336
363.15 K, x1 = 0.7995	876.55	0.343
363.15 K, x1 = 0.8975	885.04	0.351
363.15 K, x1 = 1	893.71	0.358
